Measurements: US7776558B2, “Human G protein-coupled receptor and modulators thereof for the treatment of cell death-related disorders” (Arena Pharmaceuticals, Inc., priority 2003, dated 2010)
“And” between values parts separate entries of the source, which are not always exact repeats. Equal values may be shown once. “Also recorded” adds a separate entry of the source. Read-outs that look alike come from different tables or passages of the source. Where no end group is shown, it is not given here.

Target: T1, human FPRL2 (Homo sapiens, UniProt P25089)
T1 sequence (P25089 with tags, fused parts or gaps): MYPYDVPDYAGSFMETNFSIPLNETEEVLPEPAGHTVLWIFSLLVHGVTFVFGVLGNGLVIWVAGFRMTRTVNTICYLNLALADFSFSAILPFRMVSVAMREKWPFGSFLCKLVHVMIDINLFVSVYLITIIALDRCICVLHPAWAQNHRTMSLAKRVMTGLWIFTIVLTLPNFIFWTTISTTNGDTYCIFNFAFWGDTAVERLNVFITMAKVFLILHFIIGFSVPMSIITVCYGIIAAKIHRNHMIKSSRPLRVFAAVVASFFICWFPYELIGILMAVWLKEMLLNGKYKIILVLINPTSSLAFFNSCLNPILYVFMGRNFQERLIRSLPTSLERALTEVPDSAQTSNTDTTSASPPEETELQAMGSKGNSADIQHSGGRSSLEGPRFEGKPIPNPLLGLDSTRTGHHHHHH
Assay: [35S]GTPγS binding assay, membranes of transiently transfected CHO cells
Type: biochemical
Design: expressed in transfected cells; host or cells: CHO-K1 cells, transient, pCMV; plasma membranes
Experimental: The plasmids used were HA/V5 doubled tagged endogenous FPRL2 in pCMV, HA/V5 double-tagged endogenous FPRL1 in pCMV, HAN5 double-tagged endogenous FPR in pCMV, and pCMV alone (See, Example 1). Transient transfections were carried out on CHO-K1 cells. To a 15 cm dish of confluent cells, 12 μg of plasmid DNA and 60 μl Lipofectamine (Invitrogen, Carlsbad, Calif.) were added to each plate. Twenty-four hours post-infection, plasma membranes were isolated as described below. Assays were then run as described below.
“Membrane Scrape Buffer” consists of 20 mM HEPES and 10 mM EDTA, pH 7.4; “Membrane Wash Buffer” consists of […] and 0.1 mM EDTA, pH 7.4; “Binding. Buffer” consists of 20 mM HEPES, 100 mM NaCl, and 10 mM MgCl2, pH 7.4.
All materials were kept on ice throughout the procedure. Firstly, the media was aspirated from a confluent monolayer of transfected cells, followed by rinse with 10 ml cold PBS, followed by aspiration. Thereafter, 10 ml of Membrane Scrape Buffer was added to scrape cells; this was followed by transfer of cellular extract into 50 ml centrifuge tubes (centrifuged at 20,000 rpm for 17 minutes at 4° C.). Thereafter, the supernatant was aspirated and the pellet was resuspended in 30 ml Membrane Wash Buffer followed by centrifuging at 20,000 rpm for 17 minutes at 4° C. The supernatant was then aspirated and the pellet resuspended in Binding Buffer. This was then homogenized using a Brinkman Polytron™ homogenizer (15-20 second bursts until the all material is in suspension). This is referred to herein as “Membrane Protein”. A protein determination (Bradford Protein Assay) was carried out, and the protein concentration of the Membrane Protein was adjusted to 1.0 mg/ml with cold Binding Buffer for each of the experimental samples (FPRL2, FPRL1, FPR, pCMV).
GDP Buffer consisted of 37.5 ml Binding Buffer and 2 mg GDP (Sigma, cat. no. G-7127), followed by a series of dilutions in Binding Buffer to obtain 0.2 μM GDP (final concentration of GDP in each well was 0.1 μM GDP); each well comprising a candidate compound, has a final volume of 200 μl consisting of 100 μl GDP Buffer (final concentration, 0.1 μM GDP), 50 μl Membrane Protein in Binding Buffer, and 50 μl [35S]GTPγS (0.6 nM) in Binding Buffer (2.5 μl [35S]GTPγS per 10 ml Binding Buffer).
First, 100 μl GDP Buffer was added to each well of a Wallac Scintistrip™ (Wallac). […] Thereafter, 50 μl of Membrane Protein was added to each well (a control well comprising membranes without the GPCR Protein was also utilized), and pre-incubated for 5-10 minutes at room temperature. Thereafter, 50 μl of [^35S]GTPγS (0.6 nM) in Binding Buffer was added to each well, followed by incubation on a shaker for 60 minutes at room temperature (again, in this example, plates were covered with foil). The assay was then stopped by spinning of the plates at 4000 RPM for 15 minutes at 22° C. The plates were then aspirated with an 8 channel manifold and sealed with plate covers. The plates were then read on a Wallac 1450 using setting “Prot. #37” (as per manufacturer instructions).

[1] = read-out: EC50 in [35S]GTPγS binding assay
[2] = FIG. 3 panel A, transiently transfected CHO cells, read-out: EC50 at FPRL2, promoted [35S]GTPγS binding

## CC(C)c1ccc2c(c1)CCC1C(C)(C(N)=O)CCCC21C (stereo not drawn) [Compound 1, 7-Isopropyl-1,4a-dimethyl-1,2,3,4,4a,9,10,10a-octahydro-phenanthrene-1-carboxylic acid amide]
  EC75 in [35S]GTPγS binding assay: about 15 μM
By [35S]GTPγS binding assay and by melanophore assay, FIG. 5
  Activity at human FPRL2, FPRL1 and FPR: robust and selective agonist of FPRL2
[1]
  EC50: ~2800 nM

## CC[C@H](C)[C@H](NC(=O)[C@H](CCC(=O)O)NC(=O)[C@H](CO)NC(=O)[C@@H](NC(=O)[C@H](CC(C)C)NC(=O)[C@H](CC(C)C)NC(=O)[C@H](CC(C)C)NC(=O)[C@H](CC(C)C)NC(=O)[C@H](CS)NC(=O)[C@H](CO)NC(=O)[C@H](Cc1ccccc1)NC(=O)CNC(=O)[C@H](CCCNC(=N)N)NC(=O)[C@@H]1CCCN1C(=O)[C@H](C)NC(=O)[C@@H](N)CCSC)[C@@H](C)O)C(=O)N[C@@H](CC(=O)O)C(=O)N[C@@H](CC(C)C)C(=O)N1CCC[C@H]1C(=O)N[C@H](C(=O)N[C@@H](CCCCN)C(=O)N[C@@H](CCCNC(=N)N)C(=O)N[C@@H](CCCNC(=N)N)C(=O)N[C@@H](C)C(=O)O)C(C)C [Humanin]
  EC75 in [35S]GTPγS binding assay: about 1.5 μM
[2]
  EC50: ~320 nM
[1]
  EC50: ~320 nM and ~300 nM

## MAPRGFSCLLLLTGEIDLPVKRRA [[Gly14]-Humanin]
[2]
  EC50: ~72 nM
FPRL2 versus FPRL1
  EC50 values at FPRL2 relative to the corresponding values at FPRL1: more than an order of magnitude lower
Compared with FPRL1 and FPR, FIG. 3
  Agonist activity and selectivity for FPRL2: selective and robust agonists for FPRL2; also recorded: robust and selective agonists for FPRL2
